# Reference: PubChem BioAssay (NCI)
#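 Each compound was tested at five concentrations against cells in 96-well plates for 48 hours. The concentration for 50% growth inhibition is given as GI50. At the TGI there is no net growth.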
# Key:
# Assay in all cases: DTP human tumour cell line panel, 48 h
# OVCAR-5 ovarian = test system: OVCAR-5 ovarian
# U251 CNS = test system: U251 CNS
# SF-295 CNS = test system: SF-295 CNS
# OVCAR-3 ovarian = test system: OVCAR-3 ovarian
# MALME-3M melanoma = test system: MALME-3M melanoma
# IGROV1 ovarian = test system: IGROV1 ovarian
# SN12C renal = test system: SN12C renal
# OVCAR-4 ovarian = test system: OVCAR-4 ovarian
# SK-MEL-5 melanoma = test system: SK-MEL-5 melanoma
# MCF7 breast = test system: MCF7 breast
Structure (SMILES),TGI (OVCAR-5 ovarian) [µM],TGI (U251 CNS) [µM],TGI (SF-295 CNS) [µM],TGI (OVCAR-3 ovarian) [µM],TGI (MALME-3M melanoma) [µM],TGI (IGROV1 ovarian) [µM],TGI (SN12C renal) [µM],TGI (OVCAR-4 ovarian) [µM],TGI (SK-MEL-5 melanoma) [µM],TGI (MCF7 breast) [µM],GI50 (OVCAR-5 ovarian) [µM],GI50 (SF-295 CNS) [µM],GI50 (MALME-3M melanoma) [µM],GI50 (IGROV1 ovarian) [µM],GI50 (SN12C renal) [µM],GI50 (SK-MEL-5 melanoma) [µM],GI50 (U251 CNS) [µM],GI50 (OVCAR-3 ovarian) [µM],GI50 (OVCAR-4 ovarian) [µM],GI50 (MCF7 breast) [µM]
CCOC(=O)[C@H]1Nc2ccc([N+](=O)[O-])cc2C2c3ccccc3CC21 (some centres not stated),70.4,33.1,31.2,23.1,68,> 100,43.2,49.8,30.7,–,–,–,–,–,–,–,–,–,–,–
Oc1ccc(CCNCc2cc3c(cc2Br)OCO3)cc1,> 100,> 100,> 100,> 100,> 100,> 100,> 100,–,> 100,> 100,–,–,–,–,–,–,–,–,–,–
Cc1ccc(-c2cc(=O)c3cc(C)c(C)c(C(=O)O)c3o2)cc1N,> 100,> 100,> 100,> 100,> 100,> 100,> 100,> 100,> 100,–,–,–,–,–,–,–,–,–,–,–
C=CC1(NS(=O)(=O)c2ccc(C)cc2)CCC(C(C)(C)C)CC1 (configuration not stated),–,> 100,–,> 100,> 100,> 100,> 100,> 100,> 100,–,–,–,–,–,–,–,–,–,–,–
CC1(C)C=N[N+]2(C)C3C=CC(CC3)C12 (configuration not stated),> 100,> 100,> 100,> 100,> 100,> 100,> 100,–,> 100,–,–,–,–,–,–,–,–,–,–,–
O=[N+]([O-])c1ccccc1C=NC12CC3CC(CC(C3)C1)C2,> 100,> 100,> 100,> 100,> 100,> 100,> 100,> 100,> 100,–,–,–,–,–,–,–,–,–,–,–
CCCCc1n(Cc2ccc3ccccc3c2)cc[n+]1Cc1ccc2ccccc2c1,2.63,–,2.65,–,2.64,2.26,2.43,–,1.86,–,1.28,1.3,1.18,0.732,1.09,0.612,–,–,–,–
CN[C@@H](C)[C@H](N)c1ccccc1,–,> 100,> 100,> 100,–,> 100,> 100,–,> 100,–,–,–,–,–,–,–,–,–,–,–
CSc1nc(NC2OC(COC(C)=O)C(OC(C)=O)C(OC(C)=O)C2OC(C)=O)c(-c2csc(N)n2)c(=O)n1C (configuration not stated),> 100,> 100,> 100,> 100,> 100,> 100,> 100,55.1,> 100,–,–,–,–,–,–,–,–,–,–,–
CNS(=O)(=O)NN(C)S(=O)(=O)c1ccc2ccccc2c1,–,> 100,> 100,–,> 100,> 100,> 100,> 100,> 100,–,–,–,–,–,–,–,–,–,–,–
COc1cc(-c2cc(/C=C/C(=O)c3ccc(Cl)c(Cl)c3)[nH]n2)cc(OC)c1OC,> 100,80.5,–,37.8,> 100,> 100,> 100,50.9,46.9,> 100,20.5,–,29.2,24,13.7,13.4,8.7,6.99,10.8,1.8
Cc1ccc(NC(=S)SCCC(=O)O)cc1,> 100,> 100,> 100,> 100,–,–,> 100,> 100,–,–,–,–,–,–,–,–,–,–,–,–
COc1ccc(/C(Cl)=C(\c2ccc(OCCN(C)C)cc2)c2ccc(OC(=O)C(C)(C)C)cc2)cc1,29.1,26.5,28,28.5,30,32.9,27.2,26.9,27,–,–,–,–,–,–,–,–,–,–,–
Cc1cc(N2CCCC2)nc(NCc2cc(Nc3ccnc4cc(Cl)ccc34)ccc2F)n1,–,2.84,2.53,3.06,–,–,–,–,2.2,1.07,–,1.16,–,–,–,1.01,1.5,1.57,–,0.216
C=C1C2CC(OC(C)=O)C3(C)C(c4ccoc4)OC(=O)[C@@H](O)[C@]13OC1C[C@H](OC(C)=O)C(C)(C)[C@H](CC(=O)OC)[C@]12C (some centres not stated),–,> 100,> 100,> 100,–,> 100,> 100,> 100,> 100,–,–,–,–,–,–,–,–,–,–,–
Cn1c2ccccc2c2c3[nH][nH]c(=O)c3c3c4ccccc4[nH]c3c21,> 100,21.1,10.9,7.8,29.6,–,> 100,13.2,5.04,10.4,4.21,3.14,5.24,–,2.33,1.37,2.09,1.94,2.6,1.63
O=[N+]([O-])c1cc(Cl)ccc1OCc1ccccc1,–,> 100,> 100,> 100,> 100,> 100,> 100,> 100,70.5,–,–,–,–,–,–,–,–,–,–,–
O=S(=O)([O-])[O-].[Cl-].[NH2-].[NH2-].[NH2-].[NH2-].[Ru+3].c1ccncc1,> 100,> 100,> 100,> 100,> 100,> 100,> 100,> 100,> 100,–,–,–,–,–,–,–,–,–,–,–
CCCCN(CCCC)CCC(O)c1cc2c(Cl)cc(Cl)cc2c2cc(C(F)(F)F)ccc12 (configuration not stated),26,31.7,25.4,23.7,30,26.5,20,28.5,–,24.9,–,–,–,–,–,–,–,–,–,–
O=C1Nc2ccccc2/C1=C\c1nc(C2CCN(S(=O)(=O)c3ccc(F)cc3)CC2)n2ccccc12,> 100,11.4,11.2,11.1,–,> 100,> 100,–,–,> 100,5.16,2.25,–,2.69,3.05,–,2.53,2.72,–,5.72
CC(CNCCCNCCNCCCNCO)[N+](=O)[O-] (configuration not stated),26.8,29.5,> 100,30.4,4.22,44.3,28.4,27.9,29.9,–,–,–,–,–,–,–,–,–,–,–
